From the supplement of paper PMC11208160

Assay: recombinant barcode read abundance after kanamycin selection (control-corrected) (log10(CPM+1)); higher = more efficient recombination; sequences stand for … in AGTGCAGAGAAAATCGGCCAGTTTTCTCTGCCTGCAGTCCGCATGCCGT…AGATTTATGCAGCGGACTGCCTTTCTCCCAAAGTGATAAACCGGACAGTATCATGGACCGGTTTTCCCGGTAATCCGTATTTGCAAGGTTGGTTTCACT; site = the 11-nt target
Outline: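 For this pooled screen, each oligo contained a promoter, a target, a barcode and the J23119-driven first 104 bases of the bridge RNA. Gibson cloning placed it into a vector supplying the remaining 73 bp and a T7-inducible recombinase, and the pool was co-electroporated into E. coli with a donor plasmid. Recombination efficiency is derived from barcode counts per million at recombinant junctions after averaging and control correction, and is expressed on a log scale as log10(CPM+1), with selection on chloramphenicol/ampicillin/kanamycin plus 0.1 mM IPTG against a chloramphenicol/ampicillin LB agar control.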
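Note: IS621 recombinase and bridge RNA in Escherichia coli cells.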

| Sequence | recombinant barcode read abundance (log10) |
| --- | --- |
| TTGCCGACTTGGGTTCTAACCTGTTGCCA (site TTGCCGACTTG) | 0.503 |
| CGACAATCTTGGGTTCTAACCTGTTGCTT (site CGACAATCTAA) | 0.0157 |
| GAGTGTACTTGGGTTCTAACCTGTTGCAT (site GAGAGTACTAT) | 0.208 |
| AGACTAGCTTGGGTTCTAACCTGTTGCGT (site TTACTAGCTAC) | 0.255 |
| CTCCATCCTTGGGTTCTAACCTGTTGCCT (site CTCCATCCTAG) | 0.898 |
| CGCTCCTCTTGGGTTCTAACCTGTTGCAT (site GCTCGACCTCA) | 0.177 |
| CCGCTATCTTGGGTTCTAACCTGTTGCCT (site CCGCTATCTAG) | 0.379 |
| GAGCTACCTTGGGTTCTAACCTGTTGCCT (site GAGCTACCTTG) | 0.0234 |
| TACAAGCCTTGGGTTCTAACCTGTTGCGG (site TACAAGCCTCC) | 1.91 |
| TCGACCACTTGGGTTCTAACCTGTTGCCT (site TATACCACTAG) | 0.0386 |
| TATCCCTCTTGGGTTCTAACCTGTTGCCT (site ATCAAGCCTCT) | 0.18 |
| ACTTTGCCTTGGGTTCTAACCTGTTGCCT (site ACATTGCCTAG) | 0.0554 |
| CTTTCGCCTTGGGTTCTAACCTGTTGCCT (site CTTTCGCCTAG) | 0.0534 |
| ACTTGAACTTGGGTTCTAACCTGTTGCCT (site ACTTGAACTAG) | 0.383 |
| CTCACACCTTGGGTTCTAACCTGTTGCAG (site CTCACACCTCT) | 0.968 |
| TCACGTGCTTGGGTTCTAACCTGTTGCCT (site TCACTTGCTAG) | 0.121 |
| TAGTACTCTTGGGTTCTAACCTGTTGCTC (site TAGTACTCTGA) | 1.52 |
| TAGTCCTCTTGGGTTCTAACCTGTTGCTA (site TAGTCCTCTAA) | 0.0289 |
| CAAGTCCCTTGGGTTCTAACCTGTTGCCT (site GAAGTCCCTAG) | 0.207 |
| TTCAAGCCTTGGGTTCTAACCTGTTGCGT (site TTCAAGCCTCC) | 0.0397 |
| GCTTGAACTTGGGTTCTAACCTGTTGCTT (site GCTTGAACTAA) | 0.292 |
| ACTGTCACTTGGGTTCTAACCTGTTGCGG (site ACTGTCACTCC) | 3.28 |

| Sequence | recombinant barcode read abundance (log10) |
| --- | --- |
| TACCACTCTTGGGTTCTAACCTGTTGCCT (site CACCACTCTAG) | 0.887 |
| CTATGACCTTGGGTTCTAACCTGTTGCAT (site CTATGACCTAC) | 0.139 |
| CTGTTCCCTTGGGTTCTAACCTGTTGCGG (site CTGTTCCCTCC) | 1.05 |
| GTGAAGCCTTGGGTTCTAACCTGTTGCCT (site ATGAAGCCTAG) | 0.826 |
| TGCGCTACTTGGGTTCTAACCTGTTGCCT (site TGCGCCACTAG) | 0.0462 |
| TATTGGACTTGGGTTCTAACCTGTTGCTT (site AATTGGACTAA) | 0.0764 |
| GTCATGCCTTGGGTTCTAACCTGTTGCGT (site GTCATGCCTAC) | 1.58 |
| GCGGCTCCTTGGGTTCTAACCTGTTGCAT (site GCGTCTCCTAT) | 0.331 |
| CGGGCTACTTGGGTTCTAACCTGTTGCGG (site GGGACTACTCC) | 0.0963 |
| AATTAGACTTGGGTTCTAACCTGTTGCCT (site AATTAGACTAG) | 1.12 |
| GACATATCTTGGGTTCTAACCTGTTGCTG (site GACATATCTTG) | 0.165 |
| CATAGTCCTTGGGTTCTAACCTGTTGCAT (site CATAGCCCTAT) | 0.884 |
| GTAACGACTTGGGTTCTAACCTGTTGCCA (site GTGAGGACTTG) | 0.0765 |
| CGAGGGCCTTGGGTTCTAACCTGTTGCCT (site CGAGGGCCTAG) | 0.603 |
| TAGCATGCTTGGGTTCTAACCTGTTGCAC (site TAGCATGCTCT) | 0.203 |
| ACTTCCACTTGGGTTCTAACCTGTTGCCT (site TCTTCCACTAG) | 0.111 |
| GTATCGTCTTGGGTTCTAACCTGTTGCCT (site GTATGGTCTAC) | 0.111 |
| GGTTCCTCTTGGGTTCTAACCTGTTGCCT (site GGTTCCTCTAG) | 1.11 |
| AAGGGCTCTTGGGTTCTAACCTGTTGCTT (site GTCTCTCCTCT) | 0.129 |
| ATTCAAACTTGGGTTCTAACCTGTTGCCT (site GTTCAAACTAT) | 0.088 |
| GCCATGTCTTGGGTTCTAACCTGTTGCTA (site GCCATGTCTTA) | 0.145 |
| CGCGCAGCTTGGGTTCTAACCTGTTGCCT (site CGTGCAGCTAG) | 0.416 |

| Sequence | recombinant barcode read abundance (log10) |
| --- | --- |
| GCCGTAGCTTGGGTTCTAACCTGTTGCCT (site GACGTAGCTAG) | 0.0542 |
| CTATGGACTTGGGTTCTAACCTGTTGCAT (site CTATGGACTAT) | 0.348 |
| CAGTGAACTTGGGTTCTAACCTGTTGCCT (site CGGTGAACTAG) | 0.0595 |
| CGATGGACTTGGGTTCTAACCTGTTGCCG (site CGATGGACTCG) | 0.956 |
| ACTAGTCCTTGGGTTCTAACCTGTTGCCT (site ACTAGTCCTAT) | 0.0393 |
| CCATAGGCTTGGGTTCTAACCTGTTGCTG (site GAGAGAACTAG) | 0.0117 |
| CGGCCACCTTGGGTTCTAACCTGTTGCTT (site CGGCCACCTAA) | 1.02 |
| GTCTCGGCTTGGGTTCTAACCTGTTGCTG (site GGGTCGGCTCA) | 0.0356 |
| AGAACAACTTGGGTTCTAACCTGTTGCCT (site AGTACAACTAG) | 0.102 |
| TATCAGCCTTGGGTTCTAACCTGTTGCTT (site TATCAGCCTAA) | 0.0238 |
| GCGACATCTTGGGTTCTAACCTGTTGCCT (site GCGACATCTAG) | 0.428 |
| CCTGAGTCTTGGGTTCTAACCTGTTGCCT (site CCTGAGTCTAG) | 1.01 |
| GGATACACTTGGGTTCTAACCTGTTGCCA (site GGATACACTTG) | 1.35 |
| TTGTCGTCTTGGGTTCTAACCTGTTGCCT (site ATGTAGTCTAG) | 0.0378 |
| GCTCCTACTTGGGTTCTAACCTGTTGCCT (site GTTCCTACTAG) | 0.108 |
| TGTCTAGCTTGGGTTCTAACCTGTTGCGG (site CCAAATCCTAT) | 0.208 |
| TGTTCCTCTTGGGTTCTAACCTGTTGCCT (site TGTCCCTCTAG) | 0.142 |
| CTAAGTGCTTGGGTTCTAACCTGTTGCCA (site CTAAGGGCTTG) | 0.0841 |
| TCAATCCCTTGGGTTCTAACCTGTTGCCT (site TCGATCCCTAG) | 0.173 |
| CTACAATCTTGGGTTCTAACCTGTTGCCT (site TTACAATCTAG) | 0.0283 |
| TTAGCATCTTGGGTTCTAACCTGTTGCCT (site TTAGCATCTAG) | 0.589 |
| GGGTCCTCTTGGGTTCTAACCTGTTGCCA (site GGGTCCTCTGG) | 0.0677 |

| Sequence | recombinant barcode read abundance (log10) |
| --- | --- |
| CGAGCTCCTTGGGTTCTAACCTGTTGCGT (site CGAGCTCCTAT) | 0.766 |
| GTGCGCCCTTGGGTTCTAACCTGTTGCGT (site GTGCGCCCTCC) | 0.617 |
| GAAGTAACTTGGGTTCTAACCTGTTGCCT (site GAGGTAACTAG) | 0.346 |
| TGTTCTACTTGGGTTCTAACCTGTTGCCG (site TGCTCTACTCA) | 0.052 |
| ACATGTCCTTGGGTTCTAACCTGTTGCTT (site ACATGTCCTAG) | 0.136 |
| GGTTCTTCTTGGGTTCTAACCTGTTGCCT (site GCTTCTTCTAG) | 0.0288 |
| TTGATTACTTGGGTTCTAACCTGTTGCCA (site TTGAGTACTCG) | 0.0598 |
| AGAGAACCTTGGGTTCTAACCTGTTGCCT (site GGAGAACCTAG) | 0.219 |
| TACGCCTCTTGGGTTCTAACCTGTTGCTA (site TACGCCTCTTA) | 1.31 |
| CATCCGTCTTGGGTTCTAACCTGTTGCCT (site CATCCGTCTAG) | 1.21 |
| CTATGAACTTGGGTTCTAACCTGTTGCCA (site CTATGAACTTG) | 0.283 |
| CATAATTCTTGGGTTCTAACCTGTTGCCT (site CATTATTCTAG) | 0.0376 |
| GCACTGCCTTGGGTTCTAACCTGTTGCCT (site GCCCTGCCTAG) | 0.233 |
| TGTGAGTCTTGGGTTCTAACCTGTTGCGT (site TGTGAGTCTAA) | 0.347 |
| ACCTGTACTTGGGTTCTAACCTGTTGCCT (site ACCCGTACTAG) | 0.147 |
| GCCTGCCCTTGGGTTCTAACCTGTTGCCT (site GACTGCCCTAG) | 0.0828 |
| ATCCCCTCTTGGGTTCTAACCTGTTGCCT (site ATCCCCTCTAG) | 2.53 |
| AGGGCACCTTGGGTTCTAACCTGTTGCAG (site CATCGGACTTC) | 0.142 |
| CGCGCAGCTTGGGTTCTAACCTGTTGCCT (site CGGGCAGCTAG) | 0.135 |
| GGGCCGGCTTGGGTTCTAACCTGTTGCCG (site GGGCCGGCTCG) | 1.14 |
